Key:
beagle dogs = test: Urinary glucose excretion in beagle dogs; assay type: in vivo
Experimental: Each test compound was dissolved in 10% PEG400 and administered orally to overnight-fasted beagle dogs by gavage at the dose level of 0.03 mg/kg. Control dogs were given 10% PEG400 only. One hour post dosing, glucose solution (2 g/kg, 5 mL/kg) was administered by oral gavage. Urine was collected within metabolic cages from 0 to 8 hours, and 8 to 24 hours post-dosing for urine volume and glucose measurement. Food was removed 16 hours before dosing and then provided 3 hours after dosing. Water was supplied ad libitum. The concentration of urinary glucose was determined at 8 hours and 24 hours post-dose using a biochemistry analyzer.

[1] = Pharmacokinetic parameters in SD rats; assay type: in vivo, Sprague-Dawley rats; conditions: single oral 3 mg/kg in 30% PEG400, plasma; for CL/F / AUC(0-t) / Cmax / Tmax / half-life: Sprague-Dawley, rat; for AUC(0-t): read-out: AUC0-t (mean ± SD); for half-life: read-out: t1/2 (mean ± SD) (converted)
Experimental: The pharmacokinetic study of each test compound was conducted in 4 Sprague-Dawley rats following a single oral administration of 3 mg/kg of the compound. The dose was prepared by dissolving test article in appropriate volume of 30% PEG400. The plasma samples were collected from the orbital plexus at 0.083, 0.25, 0.50, 1.0, 2.0, 4.0, 6.0, 8.0, 12 and 24 hours post dose, and the plasma concentrations were determined by a developed LC-MS/MS method.

[2] = Pharmacokinetic parameters in Beagle dogs; assay type: in vivo; conditions: dog, single oral 1 mg/kg in 30% PEG400, plasma; for AUC(0-t): read-out: AUC0-t (mean ± SD); for CL/F: read-out: CL/F (mean ± SD) (converted); for Cmax: read-out: Cmax (mean ± SD); for Tmax: read-out: tmax (mean ± SD)
Experimental: The pharmacokinetic study of each test compound was conducted in three Beagle dogs following a single oral administration of 1 mg/kg of the compound. The dose was prepared by dissolving test article in appropriate volume of 30% PEG400. The plasma samples were collected from the cephalic vein pre-dose and at 0.25, 0.50, 1.0, 2.0, 4.0, 6.0, 8.0, 12 and 24 hours post dose, and the plasma concentrations were determined by a developed LC-MS/MS method.

SD rats = test: Urinary glucose excretion in SD rats; assay type: in vivo; conditions: 1 mg/kg oral; for Urinary Glucose Excretion in Rats, 0-4 h (mean ± SD) / Urinary Glucose Excretion in Rats, 0-24 h (mean ± SD) / Urinary Glucose Excretion in Rats, 4-24 h (mean ± SD): glucose 2 g/kg 1 h post dose
Experimental: Each test compound was dissolved in 30% PEG400 and administered orally to overnight-fasted SD rats by gavage at the dose level of 1 mg/kg. Control rats were given 30% PEG400 only. One hour post dosing, glucose solution (2 g/kg, 10 mL/kg) was administered by oral gavage. Urine was collected within metabolic cages from 0 to 4 hours, and 4 to 24 hours post-dosing for urine volume and glucose measurement. Food was removed 16 hours before dosing and then provided 4 hours after dosing. Water was supplied ad libitum. The concentration of urinary glucose was determined at 4 hours and 24 hours post-dose using a biochemistry analyzer. Results were recorded for the periods 0-4 hours, 4-24 hours and 0-24 hours, and expressed as a percentage of the urinary glucose excretion (UGE) seen with reference compound A, which was run as a positive control in all experiments.

CYP2C19 = target: T1, CYP2C19 (Homo sapiens, UniProt P33261); test: P450-Glo CYP screening kit, CYP2C19 inhibition; assay type: in vitro ADME; conditions: luminescence, read-out: IC50 2C19
T1 construct: purchased Promega
T1 sequence (P33261 whole entry): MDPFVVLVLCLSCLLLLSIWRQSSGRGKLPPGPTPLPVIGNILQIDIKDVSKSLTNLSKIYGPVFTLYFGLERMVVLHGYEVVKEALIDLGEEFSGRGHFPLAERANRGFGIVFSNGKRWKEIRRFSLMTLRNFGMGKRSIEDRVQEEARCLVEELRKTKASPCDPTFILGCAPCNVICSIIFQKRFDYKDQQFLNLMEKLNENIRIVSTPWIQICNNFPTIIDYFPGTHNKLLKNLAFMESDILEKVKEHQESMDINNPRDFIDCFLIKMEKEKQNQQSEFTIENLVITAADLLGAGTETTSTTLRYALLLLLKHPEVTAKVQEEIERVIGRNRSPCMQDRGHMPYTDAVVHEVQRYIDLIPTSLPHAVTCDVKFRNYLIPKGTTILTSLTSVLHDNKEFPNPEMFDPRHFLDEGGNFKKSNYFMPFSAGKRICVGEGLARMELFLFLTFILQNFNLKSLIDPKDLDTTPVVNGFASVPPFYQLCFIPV
Excerpt: (§1) P450-Glo™ CYP Screening Kits for CYP1A2, CYP3A4 and CYP2C19 were purchased from Promega. […] Luminescence was quantified using a Victor 3 spectrophotometer (PerkinElmer).

CYP3A4 = target: T2, CYP3A4 (Homo sapiens, UniProt P08684); test: P450-Glo CYP screening kit, CYP3A4 inhibition; assay type: in vitro ADME; conditions: luminescence, read-out: IC50 3A4
T2 construct: purchased Promega
T2 sequence (P08684 whole entry): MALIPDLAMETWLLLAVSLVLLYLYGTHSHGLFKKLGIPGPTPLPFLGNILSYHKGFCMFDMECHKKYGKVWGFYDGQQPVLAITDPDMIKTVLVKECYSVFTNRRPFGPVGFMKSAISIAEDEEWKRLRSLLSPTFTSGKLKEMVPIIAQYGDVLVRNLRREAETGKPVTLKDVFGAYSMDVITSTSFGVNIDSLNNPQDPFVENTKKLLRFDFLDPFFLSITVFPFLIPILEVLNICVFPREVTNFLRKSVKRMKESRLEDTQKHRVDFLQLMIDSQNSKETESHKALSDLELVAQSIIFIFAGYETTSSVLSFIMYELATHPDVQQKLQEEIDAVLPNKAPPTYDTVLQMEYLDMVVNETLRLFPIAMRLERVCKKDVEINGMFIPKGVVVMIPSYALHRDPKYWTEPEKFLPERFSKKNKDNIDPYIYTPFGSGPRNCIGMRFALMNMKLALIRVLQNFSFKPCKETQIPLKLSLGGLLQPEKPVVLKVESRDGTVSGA
Excerpt: as §1

CYP1A2 = target: T3, CYP1A2 (Homo sapiens, UniProt P05177); test: P450-Glo CYP screening kit, CYP1A2 inhibition; assay type: in vitro ADME; conditions: luminescence, read-out: IC50 1A2
T3 construct: purchased Promega
T3 sequence (P05177 1-516): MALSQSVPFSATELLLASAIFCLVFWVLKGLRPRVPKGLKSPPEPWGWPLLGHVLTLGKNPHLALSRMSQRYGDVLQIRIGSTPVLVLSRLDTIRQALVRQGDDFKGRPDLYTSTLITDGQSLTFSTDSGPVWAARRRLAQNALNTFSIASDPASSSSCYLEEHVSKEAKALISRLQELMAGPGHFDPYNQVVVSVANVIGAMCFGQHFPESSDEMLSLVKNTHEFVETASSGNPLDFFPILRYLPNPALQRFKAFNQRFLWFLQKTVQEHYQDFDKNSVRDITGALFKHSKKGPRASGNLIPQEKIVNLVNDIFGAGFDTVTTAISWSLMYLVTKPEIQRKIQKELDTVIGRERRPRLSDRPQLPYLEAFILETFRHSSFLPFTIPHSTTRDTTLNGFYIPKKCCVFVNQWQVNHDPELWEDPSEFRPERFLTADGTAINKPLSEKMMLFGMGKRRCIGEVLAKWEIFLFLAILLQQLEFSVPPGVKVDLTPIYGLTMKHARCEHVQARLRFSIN
Excerpt: as §1

[3] = 0.03 mg/kg oral, glucose 2 g/kg 1 h post dose, 0-8 h (Table 4)
[4] = 0.03 mg/kg oral, glucose 2 g/kg 1 h post dose, 0-24 h (Table 4)
[5] = 0.03 mg/kg oral, glucose 2 g/kg 1 h post dose, 8-24 h (Table 4)
[6] = separate experiment (Table 4A), 0-24 h

[2H]C([2H])(c1ccc(OC([2H])([2H])C([2H])([2H])[2H])cc1)c1cc([C@@H]2O[C@H](CO)[C@@H](O)[C@H](O)[C@H]2O)ccc1Cl [compound 16, (2S,3R,4R,5S,6R)-2-(4-chloro-3-((4-(ethoxy-d5)phenyl)methyl-d2)phenyl)-6-(hydroxymethyl)tetrahydro-2H-pyran-3,4,5-triol]
Urinary Glucose Excretion in Dogs, 0-8 h (mean ± SD) (beagle dogs; [3]): 4362 ± 818 mg
Urinary Glucose Excretion in Dogs, 0-24 h (mean ± SD) (beagle dogs; [4]): 15357 ± 2514 mg
Urinary Glucose Excretion in Dogs, 8-24 h (mean ± SD) (beagle dogs; [5]): 10995 ± 1987 mg
CL/F [1]: 2.3 mL/min/kg
AUC(0-t) [1]: 21000 ± 4370 ng·h/mL
Cmax (mean ± SD) [1]: 2683 ± 471 ng/mL
t1/2 (mean ± SD) [1]: 5.70 ± 0.63 h
tmax (mean ± SD) [1]: 1.00 ± 0.71 h

OC[C@H]1O[C@@H](c2ccc(Cl)c(Cc3ccc(OCCOCC(F)F)cc3)c2)[C@H](O)[C@@H](O)[C@@H]1O [Ref F, (2S,3R,4R,5S,6R)-2-(4-chloro-3-(4-(2-(2,2-difluoroethoxy)ethoxy)benzyl)phenyl)-6-(hydroxymethyl)tetrahydro-2H-pyran-3,4,5-triol, reference compound]
AUC(0-t) [2]: 4920 ± 484 ng·h/mL
CL/F [2]: 3.17 mL/min/kg
Cmax [2]: 889 ± 65.4 ng/mL
Tmax [2]: 0.4 ± 0.1 h
Urinary Glucose Excretion in Dogs, 0-8 h (mean ± SD) (beagle dogs; separate experiment (Table 4A), 0-8 h): 1927 ± 307 mg
Urinary Glucose Excretion in Dogs, 0-24 h (mean ± SD) (beagle dogs; [6]): 13438 ± 5237 mg
Urinary Glucose Excretion in Dogs, 8-24 h (mean ± SD) (beagle dogs; separate experiment (Table 4A), 8-24 h): 11511 ± 5327 mg

[2H]C([2H])([2H])Oc1ccc(Cc2cc([C@]3([2H])O[C@H](CO)[C@@H](O)[C@H](O)[C@H]3O)ccc2Cl)cc1 [24e, (2S,3R,4R,5S,6R)-2-(4-chloro-3-(4-(methoxy-d3)benzyl)phenyl)-6-(hydroxymethyl)tetrahydro-2H-pyran-2-d-3,4,5-triol]
Urinary Glucose Excretion in Rats, 0-4 h, % relative to Ref A (SD rats): 162%
Urinary Glucose Excretion in Rats, 0-24 h, % relative to Ref A (SD rats): 101%
Urinary Glucose Excretion in Rats, 4-24 h, % relative to Ref A (SD rats): 97%
Urinary Glucose Excretion in Rats, 0-4 h (mean ± SD) (SD rats): 236 ± 48 mg
Urinary Glucose Excretion in Rats, 0-24 h (mean ± SD) (SD rats): 2525 ± 266 mg
Urinary Glucose Excretion in Rats, 4-24 h (mean ± SD) (SD rats): 2288 ± 287 mg

OC[C@H]1O[C@@H](c2ccc(Cl)c(Cc3ccc(OCCOC4CC4)cc3)c2)[C@H](O)[C@@H](O)[C@@H]1O [Ref G, (2S,3R,4R,5S,6R)-2-(4-chloro-3-(4-(2-cyclopropoxyethoxy)benzyl)phenyl)-6-(hydroxymethyl)tetrahydro-2H-pyran-3,4,5-triol, reference compound]
CL/F [1]: 11.8 mL/min/kg
Cmax [1]: 594 ± 85.8 ng/mL
Tmax [1]: 1.88 ± 1.55 h
AUC(0-t) [1]: 4240 ± 405 ng·h/mL
half-life [1]: 3.39 ± 0.68 h

[2H]C([2H])(C)Oc1ccc(Cc2cc([C@@H]3O[C@H](CO)[C@@H](O)[C@H](O)[C@H]3O)ccc2Cl)cc1 [24a, (2S,3R,4R,5S,6R)-2-(4-chloro-3-(4-(ethoxy-1,1′-d)benzyl)phenyl)-6-(hydroxymethyl)tetrahydro-2H-pyran-3,4,5-triol]
CL/F [1]: 2.4 mL/min/kg
AUC(0-t) [1]: 20300 ± 1610 ng·h/mL
Cmax (mean ± SD) [1]: 2923 ± 393 ng/mL
t1/2 (mean ± SD) [1]: 4.56 ± 0.64 h
tmax (mean ± SD) [1]: 0.88 ± 0.75 h

[2H]C([2H])(COc1ccc(Cc2cc([C@@H]3O[C@H](CO)[C@@H](O)[C@H](O)[C@H]3O)ccc2Cl)cc1)OC1CC1 [compound 95, (2S,3R,4R,5S,6R)-2-(4-chloro-3-(4-(2-cyclopropoxy(ethoxy-2,2-d2))benzyl)phenyl)-6-(hydroxymethyl)tetrahydro-2H-pyran-3,4,5-triol]
CL/F [1]: 9.2 mL/min/kg
Cmax [1]: 710 ± 76.4 ng/mL
Tmax [1]: 2.13 ± 1.44 h
AUC(0-t) [1]: 5240 ± 328 ng·h/mL
half-life [1]: 4.83 ± 1.42 h

[2H][C@@]1(c2ccc(Cl)c(Cc3ccc(OCC)cc3)c2)O[C@H](CO)[C@@H](O)[C@H](O)[C@H]1O [compound 5, (2S,3R,4R,5S,6R)-2-(4-chloro-3-(4-ethoxybenzyl)phenyl)-6-(hydroxymethyl)tetrahydro-2H-pyran-2-d-3,4,5-triol]
IC50 (CYP2C19): 104 µM
Urinary Glucose Excretion in Rats, 0-24 h (mean ± SD) (SD rats): 2650 ± 385 mg
Urinary Glucose Excretion in Rats, 4-24 h (mean ± SD) (SD rats): 2457 ± 369 mg
Urinary Glucose Excretion in Dogs, 0-8 h (mean ± SD) (beagle dogs; [3]): 3765 ± 808 mg
Urinary Glucose Excretion in Dogs, 0-24 h (mean ± SD) (beagle dogs; [4]): 12676 ± 2150 mg
Urinary Glucose Excretion in Dogs, 8-24 h (mean ± SD) (beagle dogs; [5]): 8910 ± 1700 mg
IC50 (CYP3A4): 500 to 1000 µM
IC50 (CYP1A2): 500 to 1000 µM

[2H]C([2H])(c1ccc(OCCOCC(F)F)cc1)c1cc([C@@H]2O[C@H](CO)[C@@H](O)[C@H](O)[C@H]2O)ccc1Cl [compound 87, (2S,3R,4R,5S,6R)-2-(4-chloro-3-((4-(2-(2,2-difluoroethoxy)ethoxy)phenyl)methyl-d2)phenyl)-6-(hydroxymethyl)-tetrahydro-2H-pyran-3,4,5-triol]
AUC(0-t) [2]: 8880 ± 1440 ng·h/mL
CL/F [2]: 1.85 mL/min/kg
Cmax [2]: 1580 ± 282 ng/mL
Tmax [2]: 0.6 ± 0.4 h
Urinary Glucose Excretion in Dogs, 0-24 h (mean ± SD) (beagle dogs; [6]): 16858 ± 674 mg

[2H]C([2H])(c1ccc(C2CC2)cc1)c1cc([C@@H]2O[C@H](CO)[C@@H](O)[C@H](O)[C@H]2O)ccc1Cl [compound 54, (2S,3R,4R,5S,6R)-2-(4-chloro-3-((4-cyclopropylphenyl)methyl-d2)phenyl)-6-(hydroxymethyl)tetrahydro-2H-pyran-3,4,5-triol]
CL/F [1]: 4.4 mL/min/kg
Cmax [1]: 1270 ± 138 ng/mL
Tmax [1]: 2 h
AUC(0-t) [1]: 10600 ± 1600 ng·h/mL
half-life [1]: 6.08 ± 1.92 h

OC[C@H]1O[C@@H](c2ccc(Cl)c(Cc3ccc(C4CC4)cc3)c2)[C@H](O)[C@@H](O)[C@@H]1O [Ref C, (2S,3R,4R,5S,6R)-2-(4-chloro-3-(4-cyclopropylbenzyl)phenyl)-6-(hydroxymethyl)tetrahydro-2H-pyran-3,4,5-triol, reference compound]
CL/F [1]: 5.2 mL/min/kg
Cmax [1]: 1050 ± 230 ng/mL
Tmax [1]: 3 ± 1.15 h
AUC(0-t) [1]: 9770 ± 2180 ng·h/mL
half-life [1]: 4.28 ± 0.8 h

[2H]C([2H])([2H])Oc1ccc(Cc2cc([C@@H]3O[C@H](CO)[C@@H](O)[C@H](O)[C@H]3O)ccc2Cl)cc1 [24d, (2S,3R,4R,5S,6R)-2-(4-chloro-3-(4-(methoxy-d3)benzyl)phenyl)-6-(hydroxymethyl)tetrahydro-2H-pyran-3,4,5-triol]
IC50 (CYP2C19): 120 µM
Urinary Glucose Excretion in Rats, 0-4 h, % relative to Ref A (SD rats): 131%
Urinary Glucose Excretion in Rats, 0-24 h, % relative to Ref A (SD rats): 92%
Urinary Glucose Excretion in Rats, 4-24 h, % relative to Ref A (SD rats): 89%
Urinary Glucose Excretion in Rats, 0-4 h (mean ± SD) (SD rats): 251 ± 44 mg
Urinary Glucose Excretion in Rats, 0-24 h (mean ± SD) (SD rats): 2234 ± 199 mg
Urinary Glucose Excretion in Rats, 4-24 h (mean ± SD) (SD rats): 1983 ± 167 mg
IC50 (CYP3A4): ~1000 µM
CL/F [1]: 7.18 mL/min/kg
AUC(0-t) [1]: 6680 ± 350 ng·h/mL
Cmax (mean ± SD) [1]: 1494 ± 428 ng/mL
t1/2 (mean ± SD) [1]: 6.34 ± 2.79 h
tmax (mean ± SD) [1]: 1.19 ± 0.94 h
IC50 (CYP1A2): > 1000 µM
